Laboratory results as given in patent US11851391B2, “Antifungal compounds and methods of forming the same” (University of Kentucky Research Foundation, priority 2018, dated 2023).
≈ marks a conversion by molar mass, not a printed value. Read-outs that look alike come from different tables or passages of the source.

Experiments:
[1] = tested on: Candida glabrata ATCC 2001 (strain H); assay: MIC determination, in vitro antifungal assay (CLSI M27-A3); type: cell-based; conditions: MIC-0, 48 h at 35° C.
Method: (§1) The activity of N,N′-diaryl-bishydrazones 7-22 was tested against a panel of seven strains of C. albicans: ATCC 10231(R) (A), ATCC 64124(R) (B), ATCC MYA-2876(S) (C), ATCC 90819(R) (D), ATCC MYA-2310(S) (E), ATCC MYA-1237(R) (F), and ATCC MYA-1003(R) (G). The activity of these bishydrazones 7-22 was also explored against a panel of three non-albicans Candida strains: C. glabrata ATCC 2001 (H), C. krusei ATCC 6258 (I), and C. parapsilosis ATCC 22019 (J). Finally, the activity of these bishydrazones 7-22 was explored against three Aspergillus strains: A. flavus ATCC MYA-3631 (K), A. nidulans ATCC 38163 (L), and A. terreus ATCC MYA-3633 (M).
(§2) Candida albicans ATCC 10231 (A), C. albicans ATCC 64124 (B), and C. albicans ATCC MYA-2876 (C) were kindly provided by Dr. Jon Y. Takemoto (Utah State University, Logan, UT, USA). C. albicans ATCC 90819 (D), C. albicans ATCC MYA-2310 (E), C. albicans ATCC MYA-1237 (F), C. albicans ATCC MYA-1003 (G), Candida glabrata ATCC 2001 (H), Candida krusei ATCC 6258 (I), Candida parapsilosis ATCC 22019 (J), Aspergillus flavus ATCC MYA-3631 (K), and Aspergillus terreus ATCC MYA-3633 (M) were obtained from the American Type Culture Collection (ATCC; Manassas, VA, USA). Aspergillus nidulans ATCC 38163 (L) was received from Dr. Jon S. Thorson (University of Kentucky, Lexington, KY, USA). Filamentous fungi and yeasts were cultivated at 35° C. in RPMI 1640 medium (with 1-glutamine, without sodium biocarbonate, Sigma-Aldrich, St. Louis, MO) buffered to a pH of 7.0 with 0.165 M morpholinepropanesulfonic acid (MOPS) buffer (Sigma-Aldrich).
(§3) A single colony of freshly prepared yeast cells was used to inoculate 5 mL of yeast extract peptone dextrose (YPD) broth prior to incubation overnight with shaking at 200 rpm at 35° C. From the actively growing yeast culture, 100 μL were then transferred to 900 μL of sterile ddH2O and re-adjusted to achieve OD600 of 0.12 (˜1×10^6 CFU/mL). The cell suspension was further diluted to achieve 2-4×10^3 CFU/mL in RPMI 1640 medium. […] The final concentration of DMSO was ensured to be <1.25% in all experiments.

[2] = tested on: Candida krusei ATCC 6258 (strain I); assay: as above; type: cell-based; conditions: MIC-0, 48 h at 35° C.
Method: as §1, §2, §3

[3] = tested on: C. albicans ATCC 64124(R) (strain B); assay: as above; type: cell-based, Candida albicans; conditions: strain B, MIC-0, 48 h at 35° C.
Method: as §1, §2
as §3, with “The MIC values of compounds 7a-24c against yeast cells (strains A-J) were determined in 96-well plates as described in the CLSI document M27-A3 with minor modifications. A” for “A”, “experiments. The MIC values for compounds 7a-24c and CAS were defined as the minimum drug concentration that yielded complete inhibition (also known as MIC-0).” for “experiments.”

[4] = tested on: C. albicans ATCC MYA-1237(R) (strain F); assay: as above; type: cell-based, Candida albicans; conditions: MIC-0, 48 h at 35° C.
Method: as §1, §2
as §3, with “The MIC values of compounds 7a-24c against yeast cells (strains A-J) were determined in 96-well plates as described in the CLSI document M27-A3 with minor modifications. A” for “A”, “experiments. The MIC values for compounds 7a-24c and CAS were defined as the minimum drug concentration that yielded complete inhibition (also known as MIC-0).” for “experiments.”

[5] = tested on: C. albicans ATCC MYA-2310(S) (strain E); assay: as above; type: cell-based, Candida albicans; conditions: MIC-0, 48 h at 35° C.
Method: as §1, §2
as §3, with “The MIC values of compounds 7a-24c against yeast cells (strains A-J) were determined in 96-well plates as described in the CLSI document M27-A3 with minor modifications. A” for “A”, “experiments. The MIC values for compounds 7a-24c and CAS were defined as the minimum drug concentration that yielded complete inhibition (also known as MIC-0).” for “experiments.”

[6] = tested on: C. albicans ATCC 90819(R) (strain D); assay: as above; type: cell-based, Candida albicans; conditions: Candida albicans, ATCC90819, 48 h, MIC-0, 48 h at 35° C., read-out: MIC
Method: as §1, §2
as §3, with “The MIC values of compounds 7a-24c against yeast cells (strains A-J) were determined in 96-well plates as described in the CLSI document M27-A3 with minor modifications. A” for “A”, “experiments. The MIC values for compounds 7a-24c and CAS were defined as the minimum drug concentration that yielded complete inhibition (also known as MIC-0).” for “experiments.”

[7] = tested on: C. albicans ATCC MYA-1003(R) (strain G); assay: as above; type: cell-based, Candida albicans; conditions: MIC-0, 48 h at 35° C.
Method: as §1, §2, §3

[8] = tested on: C. albicans ATCC MYA-2876(S) (strain C); assay: as above; type: cell-based, Candida albicans; conditions: MIC-0, 48 h at 35° C.
Method: as §1, §2, §3

[9] = tested on: Candida albicans ATCC 10231(R) (strain A); assay: as above; type: cell-based; conditions: MIC-0 (no visible growth), 48 h at 35° C.
Method: as §1, §2
as §3, with “The MIC values of compounds 7a-24c against yeast cells (strains A-J) were determined in 96-well plates as described in the CLSI document M27-A3 with minor modifications. A” for “A”, “experiments. The MIC values for compounds 7a-24c and CAS were defined as the minimum drug concentration that yielded complete inhibition (also known as MIC-0).” for “experiments.”

[10] = tested on: Candida parapsilosis ATCC 22019 (strain J); assay: as above; type: cell-based; conditions: strain J, MIC-0, 48 h at 35° C.
Method: as §1, §2
as §3, with “The MIC values of compounds 7a-24c against yeast cells (strains A-J) were determined in 96-well plates as described in the CLSI document M27-A3 with minor modifications. A” for “A”, “experiments. The MIC values for compounds 7a-24c and CAS were defined as the minimum drug concentration that yielded complete inhibition (also known as MIC-0).” for “experiments.”

[11] = tested on: Aspergillus terreus ATCC MYA-3633 (strain M); assay: MIC determination against filamentous fungi (CLSI M38-A2); type: cell-based; conditions: Aspergillus terreus, 48 h, MIC-0, 48 h at 35° C., read-out: MIC
Method: as §1, §2
(§4) Similarly, the MIC values of compounds 7a-24c, as well as that of the two control drugs against filamentous fungi (strains K-M) were determined as previously described in CLSI document M38-A2. Spores were harvested from sporulating cultures growing on potato dextrose agar (PDA) by filtration through sterile glass wool and enumerated by using a hemocytometer to obtain the desired inoculum size. […] Spore suspensions were added to the wells to afford a final concentration of 5×10^5 CFU/mL. The plates were incubated at 35° C. for 48 h. The MIC values of compounds 7a-24c and CAS against filamentous fungi were based on the complete inhibition of growth when compared to the growth control (MIC-0). […] Each test was performed in triplicate.

[12] = tested on: Aspergillus nidulans ATCC 38163 (strain L); assay: as above; type: cell-based; conditions: Aspergillus nidulans, ATCC38163, 48 h, MIC-0, 48 h at 35° C., read-out: MIC
Method: as §1, §2, §4

[13] = tested on: Aspergillus flavus ATCC MYA-3631 (strain K); assay: as above; type: cell-based; conditions: Aspergillus flavus, 48 h, MIC-0, 48 h at 35° C., read-out: MIC
Method: as §1, §2, §4

[14] = Nakaseomyces glabratus, ATCC2001, 48 h, read-out: MIC
[15] = Pichia kudriavzevii, ATCC6258, 48 h, read-out: MIC
[16] = Candida albicans, ATCC64124, 48 h, read-out: MIC
[17] = Candida albicans, 48 h, read-out: MIC
[18] = Candida albicans, ATCC10231, 48 h, read-out: MIC
[19] = Lodderomyces parapsilosis, ATCC22019, 48 h, read-out: MIC

SMILES | MIC [1, 14] | MIC [2, 15] | MIC [3, 16] | MIC [4, 17] | MIC [5, 17] | MIC [6] | MIC [7, 17] | MIC [8, 17] | MIC [9, 18] | MIC [10, 19] | MIC [11] | MIC [12] | MIC [13] | MIC [1] | MIC [2] | MIC [3] | MIC [5] | MIC [8] | MIC [9] | also measured
CC[C@H](C)C[C@H](C)CCCCCCCCC(=O)N[C@H]1C[C@@H](O)[C@@H](NCCN)NC(=O)[C@@H]2[C@@H](O)CCN2C(=O)[C@H]([C@H](O)CCN)NC(=O)[C@H]([C@H](O)[C@@H](O)c2ccc(O)cc2)NC(=O)[C@@H]2C[C@@H](O)CN2C(=O)[C@H]([C@@H](C)O)NC1=O [CAS, caspofungin, reference compound] | 0.06 µg/mL (≈ 0.0549 µM) | 0.48 µg/mL (≈ 0.439 µM) | 0.24 µg/mL (≈ 0.22 µM) | 0.24 µg/mL (≈ 0.22 µM) | 0.12 µg/mL (≈ 0.11 µM) | 0.12 µg/mL (≈ 0.11 µM) | 0.48 µg/mL (≈ 0.439 µM) | 0.06 µg/mL (≈ 0.0549 µM) | 0.975 µg/mL (≈ 0.892 µM) | 1.95 µg/mL (≈ 1.78 µM) | > 31.3 µg/mL | > 31.3 µg/mL | > 31.3 µg/mL |  |  |  |  |  |  | 
Fc1ccccc1N/N=C/c1ccc(-c2cccc(/C=N/Nc3ccccc3F)c2)cc1 [Compound 10a] | > 31.3 µg/mL | 1.95 µg/mL (≈ 4.57 µM) | 7.8 µg/mL (≈ 18.3 µM) | > 31.3 µg/mL | 31.3 µg/mL (≈ 73.4 µM) | 15.6 µg/mL (≈ 36.6 µM) | 7.8 µg/mL (≈ 18.3 µM) | > 31.3 µg/mL | 7.8 µg/mL (≈ 18.3 µM) | 15.6 µg/mL (≈ 36.6 µM) | > 31.3 µg/mL | 7.8 µg/mL (≈ 18.3 µM) | 3.9 µg/mL (≈ 9.14 µM) |  |  |  |  |  |  | 
Fc1ccccc1N/N=C/c1ccc(-c2ccc(/C=N/Nc3ccccc3F)cc2)cc1 [Compound 10b] | > 31.3 µg/mL | 3.9 µg/mL (≈ 9.14 µM) | > 31.3 µg/mL | > 31.3 µg/mL | > 31.3 µg/mL | 31.3 µg/mL (≈ 73.4 µM) | 15.6 µg/mL (≈ 36.6 µM) | 15.6 µg/mL (≈ 36.6 µM) | 3.9 µg/mL (≈ 9.14 µM) | > 31.3 µg/mL | > 31.3 µg/mL | 31.3 µg/mL (≈ 73.4 µM) | > 31.3 µg/mL |  |  |  |  |  |  | 
COc1cccc(N/N=C(\C)c2ccc(-c3ccc(/C(C)=N/Nc4cccc(OC)c4)cc3)cc2)c1 [Compound 11c] | 15.6 µg/mL (≈ 32.6 µM) | 0.98 to 3.9 µg/mL (≈ 2.05 to 8.15 µM) | 0.98 to 3.9 µg/mL (≈ 2.05 to 8.15 µM) | 31.3 µg/mL (≈ 65.4 µM) | 15.6 µg/mL (≈ 32.6 µM) | 31.3 µg/mL (≈ 65.4 µM) |  | 15.6 µg/mL (≈ 32.6 µM) | 0.98 to 3.9 µg/mL (≈ 2.05 to 8.15 µM) | 15.6 µg/mL (≈ 32.6 µM) | > 31.3 µg/mL | > 31.3 µg/mL | > 31.3 µg/mL | 15.6 µg/mL (≈ 32.6 µM) | 0.98 µg/mL (≈ 2.05 µM) | 0.98 µg/mL (≈ 2.05 µM) | 15.6 µg/mL (≈ 32.6 µM) | 15.6 µg/mL (≈ 32.6 µM) | 0.98 µg/mL (≈ 2.05 µM) | MIC [10]: 15.6 µg/mL (≈ 32.6 µM)
COc1ccc(N/N=C(\C)c2ccc(-c3ccc(/C(C)=N/Nc4ccc(OC)cc4)cc3)cc2)cc1 [Compound 15c] | 7.8 to 15.6 µg/mL (≈ 16.3 to 32.6 µM) | 7.8 to 15.6 µg/mL (≈ 16.3 to 32.6 µM) | 7.8 to 15.6 µg/mL (≈ 16.3 to 32.6 µM) | 7.8 to 15.6 µg/mL (≈ 16.3 to 32.6 µM) | 7.8 to 15.6 µg/mL (≈ 16.3 to 32.6 µM) | 31.3 µg/mL (≈ 65.4 µM) | 7.8 to 15.6 µg/mL (≈ 16.3 to 32.6 µM) | 7.8 to 15.6 µg/mL (≈ 16.3 to 32.6 µM) | 7.8 to 15.6 µg/mL (≈ 16.3 to 32.6 µM) | > 31.3 µg/mL | > 31.3 µg/mL | > 31.3 µg/mL | > 31.3 µg/mL | 7.8 µg/mL (≈ 16.3 µM) | 15.6 µg/mL (≈ 32.6 µM) | 15.6 µg/mL (≈ 32.6 µM) | 15.6 µg/mL (≈ 32.6 µM) | 15.6 µg/mL (≈ 32.6 µM) | 15.6 µg/mL (≈ 32.6 µM) | MIC [4]: 7.8 µg/mL (≈ 16.3 µM); MIC [7]: 7.8 µg/mL (≈ 16.3 µM)
